Test results from patent US7973217B2, “Stem-regulated, plant defense promoter and uses thereof in tissue-specific expression in monocots” (The Texas A&M University System, priority 2003, dated 2011).

Key:
Assay type in all cases: in vivo
OMT = test: cDNA microarray of OMT expression in sugarcane plants sprayed with defense-inducing agents; details: treated (Cy5) v. untreated control (Cy3), normalized
Procedure: The 251 cDNA clones used for microarray analysis in Example 1 were further used to assess the effects of defense-inducing agents on the expression of the stem-specific genes.
Total RNA was extracted from wild type sugarcane plants (3 months-old) that were sprayed with the defense-inducing agents jasmonic acid (JA) (25µM in 0.05.percent.Tween 20), methyl-jasmonate (MeJA) (200µM in 0.1.percent.ethanol and 0.05.percent.Tween 20) or salicylic acid (SA) (5 mM in 0.05.percent.Tween 20) for two time periods, 24 and 48 hours. The microarray including 251 cDNAs was probed with fluorescently labeled cDNAs synthesized from 1µg of total amplified RNA. One cDNA probe (e.g. RNA from plant treated with a defense-inducing agent) is labeled with one dye (Cy5), and the second (e.g. RNA from untreated control plant) with another dye (Cy3)
The normalized ratio of Cy5 v.

GUS [1] = test: Histochemical transient GUS expression in particle bombarded maize stem tissue; details: versus Ubiquitin 1 promoter
Source text: (§1) FIG. 14 is a photomicrograph of particle bombarded maize and sorghum stem tissues showing histochemical localization of transient GUS expression driven by the stem-regulated OMT promoter or the constitutive maize ubiquitinl promoter.

GUS [2] = test: Histochemical transient GUS expression in particle bombarded sorghum stem tissue; details: versus Ubiquitin 1 promoter
Source text: as §1

Molecule	Cy5/Cy3 Ratios (Upregulation) for OMT (OMT; 24 hours after spraying)	Cy5/Cy3 Ratios (Upregulation) for OMT (OMT; 48 hours after spraying)	Transient expression of GUS in stem tissue (GUS [1])	Transient expression of GUS in stem tissue (GUS [2])
CC/C=C\CC1C(=O)CCC1CC(=O)OC (stereo not shown) [MeJA, methyl-jasmonate]	0.70	0.97		
OMT promoter: sugarcane o-methyl transferase gene promoter, SEQ ID NO:1, directing stem-regulated, defense-inducible expression			comparable to that obtained with the Ubiquitin 1 promoter	comparable to that obtained with the Ubiquitin 1 promoter
CC/C=C\C[C@H]1C(=O)CC[C@@H]1CC(=O)O [JA, jasmonic acid]	0.99	2.00		
O=C(O)c1ccccc1O [SA, salicylic acid]		2.00		
